Assay results reported in ChEMBL document CHEMBL1201862, “PubChem BioAssay data set” (2004).
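Interpolation was linear, between the two tested concentrations surrounding the appropriate level; five concentrations were tested over 48 hours in 96-well plates. At the GI50, growth is halved.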 The source made the active and inactive calls. Rule as the data show it: active = GI50 up to about 1.1 µM and inactive = higher. Where a SMILES comes first, the peptide text is derived from it. The star is where a group is joined. X33 = O=C(c1ccc(-c2ccc(Cl)cc2Cl)o1)*

What was measured:
Assay in all cases: NCI tumour cell line growth inhibition, 48 h
SNB-19 = system: SNB-19
UACC-62 = system: UACC-62
SF-268 = system: SF-268
OVCAR-3 = system: OVCAR-3
SNB-75 = system: SNB-75
SF-539 = system: SF-539
HL-60 = system: HL-60
KM12 = system: KM12
ACHN = system: ACHN
HOP-18 = system: HOP-18
SN12C = system: SN12C
NCI-H460 = system: NCI-H460
SK-MEL-5 = system: SK-MEL-5
Malme-3M = system: Malme-3M
NCI-H226 = system: NCI-H226
UACC-257 = system: UACC-257
SF-295 = system: SF-295
HOP-92 = system: HOP-92
MDA-MB-435 = system: MDA-MB-435
T47D = system: T47D

Measured: GI50

N#C[C@]12CC3(CC[C@H]1CC1(C2)OCCO1)OCCO3
inactive: SNB-19 > 100 µM | UACC-62 > 100 µM | SF-268 > 100 µM | OVCAR-3 > 100 µM | SNB-75 > 100 µM | SF-539 > 100 µM | HL-60 > 100 µM | KM12 > 100 µM | ACHN > 100 µM | HOP-18 > 100 µM | SN12C > 100 µM | NCI-H460 > 100 µM | SK-MEL-5 > 100 µM | Malme-3M > 100 µM | NCI-H226 > 100 µM | UACC-257 > 100 µM

Cc1[nH]c2ccccc2c1C(=O)CC1(O)C(=O)Nc2c(Cl)cc(Cl)cc21 (centres undefined)
inactive: SNB-19 41.3 µM | SF-268 25.3 µM | SF-295 19.5 µM | OVCAR-3 16.6 µM | SNB-75 27.9 µM | SF-539 26.4 µM | HL-60 14.6 µM | KM12 61.9 µM | ACHN 21.9 µM | HOP-18 25.6 µM | SN12C 24.8 µM | NCI-H460 48.9 µM | SK-MEL-5 17.2 µM | Malme-3M 18.9 µM | NCI-H226 18.8 µM | UACC-257 17.2 µM

CN(NC(=O)CCCl)C1=NCCN1
inactive: SNB-19 > 100 µM | UACC-62 > 100 µM | SF-268 > 100 µM | SF-295 > 100 µM | OVCAR-3 > 100 µM | SNB-75 > 100 µM | SF-539 > 100 µM | HOP-92 > 100 µM | HL-60 > 100 µM | KM12 > 100 µM | ACHN > 100 µM | SN12C > 100 µM | NCI-H460 > 100 µM | MDA-MB-435 > 100 µM | SK-MEL-5 > 100 µM | Malme-3M > 100 µM | NCI-H226 > 100 µM | T47D > 100 µM | UACC-257 > 100 µM

Cc1cc(S(=O)(=O)Nc2nc(Nc3ccc4ccccc4c3)n[nH]2)c(S)cc1Cl
inactive: SNB-19 49.3 µM | UACC-62 66.4 µM | SF-268 72.1 µM | SF-295 30.2 µM | OVCAR-3 23.2 µM | SNB-75 43.3 µM | SF-539 14 µM | HOP-92 52.5 µM | HL-60 > 100 µM | KM12 25.4 µM | ACHN 84.9 µM | SN12C 48.2 µM | NCI-H460 34.8 µM | MDA-MB-435 24.9 µM | SK-MEL-5 22.5 µM | Malme-3M 89.7 µM | NCI-H226 34.1 µM | T47D 63.7 µM | UACC-257 34.3 µM

[O-][Cl+3]([O-])([O-])O.c1ccc(/N=c2\snc(-c3ccccc3)s2)cc1
inactive: SNB-19 > 100 µM | UACC-62 > 100 µM | SF-268 > 100 µM | SNB-75 > 100 µM | SF-539 > 100 µM | HL-60 > 100 µM | KM12 > 100 µM | ACHN > 100 µM | HOP-18 > 100 µM | SN12C > 100 µM | NCI-H460 > 100 µM | SK-MEL-5 > 100 µM | Malme-3M > 100 µM | NCI-H226 > 100 µM | UACC-257 > 100 µM

CCC(C)C(NC(=O)CNC(=O)C(Cc1ccccc1)NC(=O)C1CCCN1C(=O)c1ccc(-c2ccc(Cl)cc2Cl)o1)C(=O)OC (centres undefined) (X33-PFGI-OMe; configuration not given here)
inactive: SNB-19 48.1 µM | UACC-62 25.2 µM | SF-268 69.2 µM | SF-295 22 µM | OVCAR-3 23.5 µM | SNB-75 23.6 µM | SF-539 27.2 µM | HOP-92 11.2 µM | HL-60 3.47 µM | KM12 37.5 µM | ACHN 33.8 µM | SN12C 19.8 µM | NCI-H460 15.7 µM | MDA-MB-435 38.9 µM | SK-MEL-5 12.2 µM | Malme-3M 53.7 µM | NCI-H226 > 100 µM | T47D 25.3 µM | UACC-257 16.8 µM
